Experiments:
[1] = tested on: Escherichia coli EC-1: VOGEL, mouse virulent; assay: MIC determination (CLSI), strain EC-1; type: cell-based; settings: strain EC-1; unit assumed
How it was run: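 The mouse-virulent VOGEL isolate of E. coli, EC-1, served as test organism. Minimum inhibitory concentration was measured by CLSI dilution methodology (M7-A7; M100-S18 standards).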

[2] = tested on: Pseudomonas aeruginosa UI-18: Wild-type (PA-7); assay: MIC determination (CLSI), strain PA-7; type: cell-based; settings: strain PA-7; unit assumed
How it was run: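 MIC determined by broth dilution per CLSI M7-A7 guidelines with M100-S18 interpretive standards. Test organism: wild-type Pseudomonas aeruginosa UI-18, designated PA-7.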

Row | Structure (SMILES) | EC-1 (MIC) [1] [µg/mL] | PA-7 (MIC) [2] [µg/mL]
1 | Cc1c(-c2ccc(C#N)cc2)ccn(CC[C@](C)(C(=O)NO)S(C)(=O)=O)c1=O [Example 398, (2R)-4-[4-(4-cyanophenyl)-3-methyl-2-oxopyridin-1(2H)-yl]-N-hydroxy-2-methyl-2-(methylsulfonyl)butanamide] | 4 | 2
2 | Cc1c(-c2ccc(OC(F)F)cc2)ccn(CC[C@](C)(C(=O)NO)S(C)(=O)=O)c1=O [Example 399, (2R)-4-{4-[4-(difluoromethoxy)phenyl]-3-methyl-2-oxopyridin-1(2H)-yl}-N-hydroxy-2-methyl-2-(methylsulfonyl)butanamide] | 0.5 | 1
3 | C[C@@](CCn1ccc(-c2ccc(-c3ccncn3)cc2)cc1=O)(C(=O)NO)S(C)(=O)=O [Example 400, (2R)-N-hydroxy-2-methyl-2-(methylsulfonyl)-4-[2-oxo-4-(4-pyrimidin-4-ylphenyl)pyridin-1(2H)-yl]butanamide] | 1 | 2
4 | C[C@@](CCn1ccc(-c2ccc(-n3ncc[n+]3[O-])cc2)cc1=O)(C(=O)NO)S(C)(=O)=O [Example 401, (2R)-N-hydroxy-2-methyl-2-(methylsulfonyl)-4-{4-[4-(1-oxido-2H-1,2,3-triazol-2-yl)phenyl]-2-oxopyridin-1(2H)-yl}butanamide] | 8 | 8
5 | C[C@@](CCn1ccc(-c2ccc(-c3ccncc3)cc2)cc1=O)(C(=O)NO)S(C)(=O)=O [Example 402, (2R)-N-hydroxy-2-methyl-2-(methylsulfonyl)-4-[2-oxo-4-(4-pyridin-4-ylphenyl)pyridin-1(2H)-yl]butanamide] | 0.5 | 2
6 | COCCOCCOc1ccc(-c2ccn(CC[C@](C)(C(=O)NO)S(C)(=O)=O)c(=O)c2)cc1 [Example 403, (2R)-N-hydroxy-4-[4-{4-[2-(2-methoxyethoxy)ethoxy]phenyl}-2-oxopyridin-1(2H)-yl]-2-methyl-2-(methylsulfonyl)butanamide] | 1 | 4
7 | CCOc1ncc(-c2ccn(CC[C@](C)(C(=O)NO)S(C)(=O)=O)c(=O)c2)cn1 [Example 404, (2R)-4-[4-(2-ethoxypyrimidin-5-yl)-2-oxopyridin-1(2H)-yl]-N-hydroxy-2-methyl-2-(methylsulfonyl)butanamide] | > 64 | > 64
8 | C[C@@](CCn1ccc(-c2ccc(-c3cscn3)cc2)cc1=O)(C(=O)NO)S(C)(=O)=O [Example 405, (2R)-N-hydroxy-2-methyl-2-(methylsulfonyl)-4-{2-oxo-4-[4-(1,3-thiazol-4-yl)phenyl]pyridin-1(2H)-yl}butanamide] | 0.125 | 1
9 | C[C@@](CCn1ccc(-c2ccc(-c3cncs3)cc2)cc1=O)(C(=O)NO)S(C)(=O)=O [Example 406, (2R)-N-hydroxy-2-methyl-2-(methylsulfonyl)-4-{2-oxo-4-[4-(1,3-thiazol-5-yl)phenyl]pyridin-1(2H)-yl}butanamide] | 0.25 | 0.5
10 | C[C@@](CCn1ccc(-c2ccc(-n3ncc(O)n3)cc2)cc1=O)(C(=O)NO)S(C)(=O)=O [Example 407, (2R)-N-hydroxy-4-{4-[4-(4-hydroxy-2H-1,2,3-triazol-2-yl)phenyl]-2-oxopyridin-1(2H)-yl}-2-methyl-2-(methylsulfonyl)butanamide] | 16 | 32
11 | C[C@@](CCn1ccc(-c2ccc(-c3cc(CO)no3)cc2)cc1=O)(C(=O)NO)S(C)(=O)=O [Example 408, (2R)-N-hydroxy-4-[4-{4-[3-(hydroxymethyl)isoxazol-5-yl]phenyl}-2-oxopyridin-1(2H)-yl]-2-methyl-2-(methylsulfonyl)butanamide] | 8 | 8
12 | CN(C)c1ncc(-c2ccc(-c3ccn(CC[C@](C)(C(=O)NO)S(C)(=O)=O)c(=O)c3)cc2)cn1 [Example 409, (2R)-4-[4-{4-[2-(dimethylamino)pyrimidin-5-yl]phenyl}-2-oxopyridin-1(2H)-yl]-N-hydroxy-2-methyl-2-(methylsulfonyl)butanamide] | 0.5 | 2
